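Exposure lasted 48 hours, with cells grown in 96-well plates and compounds tested at five concentrations. The concentration for 50% growth inhibition is given as GI50. At the TGI there is no net growth.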
How the values were obtained:
Assay in all cases: DTP human tumour cell line panel, 48 h
CCRF-CEM leukemia = tested on: CCRF-CEM leukemia
U251 CNS = tested on: U251 CNS
DLD-1 colon = tested on: DLD-1 colon
UACC-257 melanoma = tested on: UACC-257 melanoma
SF-295 CNS = tested on: SF-295 CNS
LXFL 529 NSCLC = tested on: LXFL 529 NSCLC
HOP-92 NSCLC = tested on: HOP-92 NSCLC
HL-60(TB) leukemia = tested on: HL-60(TB) leukemia
SK-MEL-2 melanoma = tested on: SK-MEL-2 melanoma
PC-3 prostate = tested on: PC-3 prostate

| Compound | TGI (CCRF-CEM leukemia) | TGI (U251 CNS) | TGI (DLD-1 colon) | TGI (UACC-257 melanoma) | TGI (SF-295 CNS) | TGI (LXFL 529 NSCLC) | TGI (HOP-92 NSCLC) | TGI (HL-60(TB) leukemia) | TGI (SK-MEL-2 melanoma) | GI50 (LXFL 529 NSCLC) | GI50 (HL-60(TB) leukemia) | GI50 (CCRF-CEM leukemia) | GI50 (U251 CNS) | GI50 (SK-MEL-2 melanoma) | GI50 (UACC-257 melanoma) | GI50 (SF-295 CNS) | GI50 (HOP-92 NSCLC) | GI50 (PC-3 prostate) | TGI (PC-3 prostate) |
| --- | --- | --- | --- | --- | --- | --- | --- | --- | --- | --- | --- | --- | --- | --- | --- | --- | --- | --- | --- |
| O=C(O)CCSC(=O)Nc1cccc2ccccc12 | > 100 µM | > 100 µM | > 100 µM | > 100 µM | > 100 µM | > 100 µM | > 100 µM | – | – | – | – | – | – | – | – | – | – | – | – |
| O=C(C=Nc1ccccc1S)c1ccco1 | 10.2 µM | 18.7 µM | 28.1 µM | 32.1 µM | 18.8 µM | 15.9 µM | – | 22.3 µM | 33.1 µM | 4.57 µM | – | – | – | – | – | – | – | – | – |
| CCN(CC)CCn1c(=O)c2cc(OC)c(OC)cc2c2ccc3cc4c(cc3c21)OCO4 | > 33.6 µM | 18.6 µM | – | 22.2 µM | 2.54 µM | – | > 50 µM | 3.16 µM | > 100 µM | – | 0.721 µM | 0.0824 µM | 0.201 µM | > 100 µM | 0.472 µM | 0.0907 µM | 0.49 µM | 0.799 µM | 99.7 µM |
| COc1c(C)c(OC)c(C(=O)CC(C)C)c(OC)c1C | > 100 µM | > 100 µM | – | > 100 µM | > 100 µM | – | > 100 µM | 50.5 µM | > 100 µM | – | – | – | – | – | – | – | – | – | > 100 µM |
| COc1ccc(C2CC(c3ccc(OC)cc3O)=NN2c2ccc(S(N)(=O)=O)cc2)cc1 (centres undefined) | > 100 µM | > 100 µM | – | > 100 µM | > 100 µM | – | 32.8 µM | 47.9 µM | 85.9 µM | – | 11.9 µM | 16.1 µM | 6.42 µM | 17.1 µM | 15.9 µM | 29.4 µM | 3.27 µM | 4.29 µM | > 100 µM |
| CCN(CCO)CCCC(C)Nc1ccnc2cc(Cl)ccc12 (centres undefined) | > 100 µM | > 100 µM | – | > 100 µM | > 100 µM | – | > 100 µM | 47.6 µM | > 100 µM | – | 13.3 µM | > 100 µM | > 100 µM | > 100 µM | > 100 µM | > 100 µM | > 100 µM | > 100 µM | > 100 µM |
| COc1ccc([Se][Se]c2ccc(OC)cc2OC)c(OC)c1 | 5.29 µM | – | 8.72 µM | 5.85 µM | 4.03 µM | 4.64 µM | 4.46 µM | 5.89 µM | 20.8 µM | – | – | – | – | – | – | – | – | – | – |
| COc1ccc(-c2cc(=O)c3cc(C)c(C)c(C(=O)O)c3o2)cc1 | > 100 µM | > 100 µM | > 100 µM | > 100 µM | > 100 µM | > 100 µM | – | > 100 µM | > 100 µM | – | – | – | – | – | – | – | – | – | – |
| CC1(C)N=c2cc3c(cc2N1c1ccc(Cl)cc1)=Nc1ccccc1N3c1ccc(Cl)cc1 | 13.9 µM | > 100 µM | – | > 100 µM | 28.5 µM | – | 6.59 µM | 4.2 µM | > 100 µM | – | 1.74 µM | 2.6 µM | 8.03 µM | 3.9 µM | 5.52 µM | 2.08 µM | 1.57 µM | 2.45 µM | > 100 µM |

From PubChem BioAssay (NCI)
